ChEMBL document CHEMBL3885861, “Open TG-GATES”

Organism: Rattus norvegicus
Assay: Open TG-GATES - Regimen: Daily Repeat
Type: toxicity, organism-based, Sprague-Dawley
Parameters: regimen Daily Repeat, gender Male, age 6 weeks
Conditions: in vivo, po, route gavage; for Bas / Eos / Fbg / Hb / Ht / MCHC / MCV / Mono / Neu / Plat / RBC / Ret / WBC: tissue Blood; for KIDNEY_L / KIDNEY_R / KIDNEY_TOTAL: tissue Kidney; for LIVER: tissue Liver; for ALP / AST / BUN / CRE / DBIL / GLC / K / LDH / Na / PL / RALB / TBIL / TC / TG / TP / gamma-GTP / IP: tissue Plasma
[1] = 0 mg/kg, 72 h, dose level Control, time 3 day
[2] = 0 mg/kg, […], dose level Control, time 7 day
[3] = 0 mg/kg, […], dose level Control, time 14 day
[4] = 0 mg/kg, […], dose level Control, time 28 day
[5] = 20 mg/kg, 72 h, dose level Low, time 3 day

## CO[C@H]1/C=C/O[C@@]2(C)Oc3c(C)c(O)c4c(O)c(c(/C=N/N5CCN(C)CC5)c(O)c4c3C2=O)NC(=O)/C(C)=C\C=C\[C@H](C)[C@H](O)[C@@H](C)[C@@H](O)[C@@H](C)[C@H](OC(C)=O)[C@@H]1C [RIFAMPIN]
[1]
  TERMINAL_BW: 242.1 g
  Bas: 0%
  Eos: 1%
  Fbg: 239 mg/dL
  Hb: 13.9 g/dL
  Ht: 42%
  MCHC: 33.1%
  MCV: 63.9 fL
  Mono: 7.2%
  Neu: 13.8%
  Plat: 126 x10_4/uL
  RBC: 657.6 x10_4/ul
  Ret: 6.4%
  WBC: 129.1 x10_2/uL
  KIDNEY_L: 1 g
  KIDNEY_R: 1 g
  KIDNEY_TOTAL: 2 g
  LIVER: 12.4 g
  ALP: 966.4 IU/L
  AST: 62.4 IU/L
  BUN: 19 mg/dL
  CRE: 0.6 mg/dL
  DBIL: 0.004 mg/dL
  GLC: 199.2 mg/dL
  K: 5 meq/L
  LDH: 110.6 IU/L
  Na: 139.8 meq/L
  PL: 157 mg/dL
  RALB: 3.7 g/dL
  TBIL: 0.3 mg/dL
  TC: 83.8 mg/dL
  TG: 112.8 mg/dL
  TP: 6.1 g/dL
  gamma-GTP: 2 IU/L
[2]
  TERMINAL_BW: 275.2 g
  Bas: 0%
  Eos: 0%
  Fbg: 231.8 mg/dL
  Hb: 14.1 g/dL
  Ht: 42.8%
  MCHC: 33.1%
  MCV: 63.2 fL
  Mono: 6.2%
  Neu: 13.6%
  Plat: 107.2 x10_4/uL
  RBC: 677.2 x10_4/ul
  Ret: 5.8%
  WBC: 122.2 x10_2/uL
  KIDNEY_L: 1.1 g
  KIDNEY_R: 1.1 g
  KIDNEY_TOTAL: 2.3 g
  LIVER: 13.1 g
  ALP: 827 IU/L
  AST: 68 IU/L
  BUN: 17.8 mg/dL
  CRE: 0.6 mg/dL
  DBIL: 0.004 mg/dL
  GLC: 198.6 mg/dL
  IP: 8.3 mg/dL
  K: 4.9 meq/L
  LDH: 108.4 IU/L
  Na: 140.6 meq/L
  PL: 150 mg/dL
  RALB: 3.9 g/dL
  TBIL: 0.3 mg/dL
  TC: 74.6 mg/dL
  TG: 132.6 mg/dL
  TP: 6.1 g/dL
  gamma-GTP: 1.8 IU/L
[3]
  TERMINAL_BW: 316.4 g
  Bas: 0%
  Eos: 0.8%
  Fbg: 235.6 mg/dL
  Hb: 15 g/dL
  Ht: 45%
  MCV: 59.6 fL
  Mono: 6%
  Neu: 11.8%
  Plat: 112.5 x10_4/uL
  RBC: 754.8 x10_4/ul
  Ret: 3.5%
  WBC: 153.6 x10_2/uL
  KIDNEY_L: 1.2 g
  KIDNEY_R: 1.2 g
  KIDNEY_TOTAL: 2.4 g
  LIVER: 13.9 g
  ALP: 668.4 IU/L
  AST: 55.2 IU/L
  BUN: 18.2 mg/dL
  CRE: 0.6 mg/dL
  DBIL: 0.066 mg/dL
  GLC: 202.8 mg/dL
  IP: 7.9 mg/dL
  K: 5 meq/L
  LDH: 78.4 IU/L
  Na: 139.6 meq/L
  PL: 154.2 mg/dL
  RALB: 3.9 g/dL
  TBIL: 0.3 mg/dL
  TC: 68.6 mg/dL
  TG: 205.8 mg/dL
  TP: 6.3 g/dL
  gamma-GTP: 1.4 IU/L
[4]
  TERMINAL_BW: 390.1 g
  Bas: 0%
  Eos: 0.8%
  Hb: 15.7 g/dL
  Ht: 47%
  MCHC: 33.4%
  MCV: 58.9 fL
  Mono: 3%
  Neu: 12.4%
  RBC: 799.6 x10_4/ul
  Ret: 2.2%
  KIDNEY_L: 1.4 g
  KIDNEY_R: 1.4 g
  KIDNEY_TOTAL: 2.7 g
  LIVER: 16 g
  ALP: 557.2 IU/L
  AST: 56.4 IU/L
  BUN: 20.2 mg/dL
  CRE: 0.6 mg/dL
  DBIL: 0.014 mg/dL
  GLC: 179.8 mg/dL
  IP: 7.2 mg/dL
  K: 4.9 meq/L
  LDH: 77.2 IU/L
  Na: 140.6 meq/L
  PL: 157.4 mg/dL
  RALB: 4 g/dL
  TBIL: 0.3 mg/dL
  TC: 79.6 mg/dL
  TG: 165 mg/dL
  TP: 6.3 g/dL
  gamma-GTP: 0.8 IU/L
[5]
  TERMINAL_BW: 234.9 g
  Bas: 0%
